Legend:
[1] = Knoop hardness repair (% HR) of acid-etched human enamel after treatment and remineralization
Description: KHN is determined using the Knoop microhardness tester. A baseline measurement is taken on a sound enamel sample without treatment (KHN0), on an acid-etched enamel sample (KHNe), and on an acid-etched enamel sample after treatment (KHNt). Each KHN measurement is the average of 5 indentations made on the same specimen at a force of 0.05 kg for 15 seconds. A value for Percentage of Hardness Repair (% HR) is calculated according to the following formula: % HR=(KHNt−KHNe)/(KHN0−KHNe)×100
Etched enamel samples are prepared by treatment with 1% aqueous citric acid (pH 3.6) for 10 minutes, followed by rinsing with deionized water. […]

[2] = Surface roughness change (% R) of etched human enamel, 3D laser scanning confocal microscope; details: Example 2, % R=(Rt−Re)/(Re)×100, four days of treatment, negative = smoother
Description: Human molar teeth are obtained, and the root portion of the molar is removed. The crown of the molar is cut longitudinally into slices 2 mm thick using a water-cooled low-speed diamond saw. The human enamel samples are then mounted in acrylic resin. The embedded samples are grinded and polished with a sequential series of wet 400 to 4000 grit silicon carbide papers and nylon adhesive backed discs with 0.25 micron diamond or colloidal silica coating. The polished slices are rinsed thoroughly with distilled water three times, sonicated in a water bath for five minutes, then rinsed again and allowed to air dry.
(§1) Etched enamel samples are prepared by treatment with 1% aqueous citric acid (pH 3.6) for 10 minutes, followed by rinsing with deionized water.
Etched human enamel samples are treated with 50 microliters of polyelectrolyte solutions A-F, or with control solutions, for ten minutes at room temperature. […]
In addition, surface roughness and morphology are evaluated using a 3D laser scanning confocal microscope. […] Roughness is therefore measured in units of micrometers. Values for roughness of the acid etched enamel sample (Re) and for the acid-etched enamel sample after treatment (Rt) are determined. Percentage of roughness (% R) is calculated as follows: % R=(Rt−Re)/(Re)×100

[3] = Gloss recovery (% GR) of acid-etched enamel, Novo-Curve glossmeter; set-up: species or system bovine; details: Example 5
Description: Enamel repair is also evaluated using the method described in Example 4. A Keyence microscope is used to capture the surface morphology and to measure the step height of the treated samples. A Phenom ProX Desktop scanning electron microscope is used to observe the repaired enamel crystals. Bovine enable blocks are treated with either water, the sodium fluoride solution, or the 10 mg/mL ePL+0.06 mg/mL malic acid solution (Solution E above).
The effect of treatments on enamel appearance is also investigated by measuring the surface gloss and observing the surface under a microscope. The gloss values are measured using a Novo-Curve glossmeter. A glossmeter provides a quantifiable way of measuring gloss intensity, and the measurement relates to the amount of reflected light from a black glass standard with a defined refractive index. The ratio of reflected light for a test specimen, compared to the ratio for the gloss standard, is recorded as gloss units (GU). A gloss measurement of >70 GU is considered high gloss, while medium gloss is 10-70 GU, and low gloss is <10 GU.
A baseline measurement is taken on a sound enamel sample without treatment (G0), on an acid-etched enamel sample (Ge), and on an acid-etched enamel sample after treatment (Gt). The percentage of gloss recovery (% GR) is calculated according to the following formula: % GR=(Gt−Ge)/(G0−Ge)×100.

[4] = Scanning electron microscopy of enamel surface; details: Example 5; bovine enamel blocks
Description: (§2) The left half of the block (“sound”) is covered using an acid-resistant nail polish, which is then allowed to air dry. The right half of the block (“damaged” and “repaired”) is then treated with 1% citric acid (pH 3.6) for ten minutes to etch the surface. After the treatment, the surface of the block is rinsed with deionized water. The top right corner of the block (“damaged”) is then covered with the same acid-resistant nail polish and air dried. The test formulation is then applied to the bottom right corner of the block (“repaired”), for example, for a ten-minute treatment, followed by rinsing with deionized water. Following the treatment, the enamel blocks are immersed in a Remineralization Solution (0.2205 g/L CaCl2·2H2O, 0.1225 g/L KH2PO4, 9.6915 g/L KCl and 4.766 g/L HEPEs buffer, pH adjusted to 7 with NaOH) overnight at 37° C., and the process repeated for 2-4 days (the blocks immersed daily in fresh remineralization solution). Following this, the blocks are removed, rinsed with deionized water and air dried. The nail polish covers are then removed using acetone solvent, and the surface of the enamel blocks is visualized, for example, by light microscopy, confocal laser scanning microscopy, scanning probe microscopy, or scanning electron microscopy. […]
(§3) Enamel repair is also evaluated using the method described in Example 4. […]

[5] = Step height repair of etched bovine enamel blocks (sound/damaged/repaired method, Keyence microscope)
Description: as §2, §3

[6] = Knoop hardness repair (% HR) of acid-etched bovine enamel after treatment and remineralization; details: for % HR (Percentage Hardness Repair): bovine enamel, 40 microliters
Description: Bovine enamel blocks are obtained from sound bovine incisors without defects. The labial surface of the bovine teeth is cut to provide enamel specimens of about 3×3×2 mm in size. The enamel layer is about 1 mm thick and the dentin left in the specimen is about 1 mm thick.
as §1
Etched bovine enamel samples are treated with 50 microliters of polyelectrolyte solutions A-F, or with sodium fluoride solution or water, for ten minutes at room temperature. The samples are then rinsed with deionized water and then they are immersed in 50 mL of Remineralization Solution (0.2205 g/L CaCl2·2H2O, 0.1225 g/L KH2PO4, 9.6915 g/L KCl and 4.766 g/L HEPEs buffer, pH adjusted to 7 with NaOH) overnight at 37° C. The enamel samples are then rinsed with deionized water for 50 seconds and then air dried.
Knoop Hardness (KHN) is a measure of hardness of a material calculated by measuring the indentation produced by a diamond tip that is pressed onto the surface of a sample. Using a calibrated microscope, the area of the impression can be determined, and from the area of the indentation (D) in […], and the applied load (F) in kilograms force, the Knoop Hardness is calculated as: KHN=14.229(F/D^2). Knoop hardness has units of kgf/mm^2.
KHN is determined using the Knoop microhardness tester. […] A value for Percentage of Hardness Repair (% HR) is calculated according to the following formula: % HR=(KHNt−KHNe)/(KHN0−KHNe)×100
Bovine and human enamel blocks are prepared and treated with polyelectrolyte test solutions as described in Examples 1 and 2, respectively, except that 40 microliters of the polyelectrolyte solution are applied to the etched enamel surface, instead of 50 microliters. Koop Hardness (KHN) and Percentage Hardness Repair (% HR) are determined as described in Examples 1 and 2. […]

[7] = Light microscopy of enamel surface morphology (sound/damaged/repaired method); details: Example 5; bovine enamel blocks
Description: as §2, §3

| SMILES | % HR (Percentage of Hardness Repair) ([1]; Example 2, 50 microliters for ten minutes, overnight remineralization, repeated daily for four days) | % R (Percentage of roughness) [2] | % GR (percentage of gloss recovery) ([3]; 2 days of remineralization) | surface gloss recovery, in words ([3]; after 2 days of remineralization) | repair of gaps or cracks in the enamel surface by scanning electron microscopy [4] | restoration of enamel height in 3-D Keyence photomicrographs (FIG. 3) ([5]; Example 5) | % Repair (Step height) ([5]; Example 5, calculated from change in step height) | % HR (Percentage Hardness Repair) ([1]; Example 3, 40 microliters, solutions pH 7.0, 4 days of treatments) | % HR (Percentage of Hardness Repair) ([6]; Example 1, bovine enamel etched with 1% citric acid, 50 microliters for ten minutes, Remineralization Solution overnight at 37° C.) | % HR (Percentage Hardness Repair) ([6]; Example 3, solutions pH 7.0) | % HR (Percentage Hardness Repair) ([6]; Example 5, solutions about pH 6.0, 1 day of treatment) | surface morphology of the repaired side under the microscope (FIG. 2) [7] |
| --- | --- | --- | --- | --- | --- | --- | --- | --- | --- | --- | --- | --- |
| O=C(O)CC(O)C(=O)O (stereo not drawn) [Malic acid, malic acid] | 19.8% | −1.6% |  |  |  |  |  |  |  |  |  |  |
| [F-].[Na+] [NaF, sodium fluoride] |  |  | 12.7% | slightly better than water treatment | some healing | do not restore the enamel to the original height | 65.3% | 49.3% | 27.9% | 35.9% | 41.0% | a clear interface between “damaged” and “repaired” sides is observed |

Reference: US12551429B2, “Oral care complexes and compositions” (Colgate-Palmolive Company, priority 2021, dated 2026)
